According to paper PMC3613864 (Cell, 2012):
Entries after “also recorded” stand apart in the source; their conditions may differ. Like-named read-outs stand apart in the source and are kept apart here.

Columns and labels:
6133/MPL cells [1] = assay: Transplantation of drug-pre-treated 6133/MPL cells into mice; type: in vivo, C57Bl/6 mice
phospho-histone H3 = assay: Phosphorylation of histone H3 in CMK cells; type: cell-based, human
AURKA = molecular target: T1, AURKA (Homo sapiens, UniProt O14965); assay: Phosphorylation of Aurora kinases in CMK cells by Western blot; type: cell-based
T1 sequence (O14965 1-403): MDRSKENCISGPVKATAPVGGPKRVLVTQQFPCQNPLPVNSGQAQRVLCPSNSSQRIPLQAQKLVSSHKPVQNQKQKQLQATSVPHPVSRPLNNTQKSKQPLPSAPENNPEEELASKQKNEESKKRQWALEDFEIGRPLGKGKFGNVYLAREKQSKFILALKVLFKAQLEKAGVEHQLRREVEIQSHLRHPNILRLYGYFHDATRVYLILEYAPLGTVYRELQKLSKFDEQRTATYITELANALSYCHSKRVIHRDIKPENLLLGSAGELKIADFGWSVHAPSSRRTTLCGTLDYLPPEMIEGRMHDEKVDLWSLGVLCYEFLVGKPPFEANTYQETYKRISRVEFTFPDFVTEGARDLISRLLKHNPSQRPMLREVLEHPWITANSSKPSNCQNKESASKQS

[2] = test system: primary human megakaryocytes; assay: Primary human megakaryocytes expanded from CD34+ cells; type: cell-based
CMK cells [3] = assay: Polyploidization, proliferation, apoptosis and CD41/CD42 expression in CMK cells; type: cell-based, human
AURKB = AURKB (Homo sapiens, UniProt Q96GD4); assay: Phosphorylation of Aurora kinases in CMK cells by Western blot; type: cell-based
tg-ERG cells = assay: AMKL cell line derived from ERG transgenic mice; type: cell-based; conditions: tg-ERG cells (data not shown)
6133/MPL cells [4] = assay: 6133/MPL cells in vitro; type: cell-based; conditions: 6133/MPL murine cell line
CMK cells [5] = type: cell-based, human; conditions: three-day incubation
[6] = test system: human CD41+ non-DS-AMKL blasts; assay: Human non-DS-AMKL blasts cultured ex vivo; type: cell-based; conditions: 0.1 µM, 6 days
[7] = test system: murine bone marrow-derived megakaryocytes; assay: Primary murine hematopoietic progenitor cells cultured with THPO; type: cell-based; conditions: primary mouse bone marrow cells cultured ex vivo
[8] = Oral pharmacokinetics, plasma concentration after a single dose; conditions: single oral administration of 15 mg/kg
AURKA relative to AURKB = conditions: ref Gorgun et al., 2010; Manfredi et al., 2011; cited from earlier work
6133/MPL cells [9] = assay: Drug treatment of mice transplanted with 6133/MPL cells; type: in vivo, C57Bl/6 mice
in vivo = conditions: C57Bl/6, mouse, plasma, po, 15 mg/kg
[10] = test system: leukemia blasts that harbor activated oncogenic forms of KIT, FLT3, and BCR-ABL; conditions: ref Mali et al., 2011; cited from earlier work
AMKL-derived cells = assay: Phenotype in AMKL-derived cells; type: cell-based; conditions: data not shown
402 purified kinases = assay: Ambit KinomeScan kinase binding profile; conditions: of 402 kinases; 5 µM diMF
[11] = 1 µM, CMK cells (data not shown)
[12] = CMK cells, 0.1 µM paclitaxel 18 hr then compound 2 hr
[13] = CMK cells, 72 hr, Fig 2: K252a, latrunculin B, diMF 5 µM, SU6656 4 µM

Chain of AURKB (Q96GD4 whole entry): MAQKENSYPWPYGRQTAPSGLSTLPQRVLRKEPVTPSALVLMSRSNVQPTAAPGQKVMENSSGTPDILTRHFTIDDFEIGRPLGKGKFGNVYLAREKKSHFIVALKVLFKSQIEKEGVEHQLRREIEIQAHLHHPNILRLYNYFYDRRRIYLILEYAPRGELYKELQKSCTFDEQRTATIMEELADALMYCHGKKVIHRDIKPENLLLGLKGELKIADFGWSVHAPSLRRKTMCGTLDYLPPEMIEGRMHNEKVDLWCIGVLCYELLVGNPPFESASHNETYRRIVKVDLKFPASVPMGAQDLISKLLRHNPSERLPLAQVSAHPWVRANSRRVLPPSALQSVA

## CCN(CCO)CCCOc1ccc2c(Nc3cc(CC(=O)Nc4cccc(F)c4)[nH]n3)ncnc2c1 [AZD1152-HQPA]
6133/MPL cells [1]; 6133/MPL cells pre-treated 24 hr with 3 µM
  leukemia development after transplantation of pre-treated cells: failed to significantly interfere with leukemia development
phospho-histone H3
  phospho-histone H3 level: reduction in phospho-histone H3
AURKA; [11]
  phospho-AURKA: complete loss of phospho-AURKA and AURKB
AURKA; [12]
  AURKA phosphorylation / autophosphorylation: reduced phosphorylation of both Aurora A and B kinases
[2]
  polyploidization of primary human megakaryocytes: induced robust and selective polyploidization
CMK cells [3]; [13]
  apoptosis: induced
  polyploidization: induced robust polyploidization
  proliferation: restricted proliferation
AURKB; [11]
  phospho-AURKB: complete loss of phospho-AURKA and AURKB
AURKB; [12]
  AURKB phosphorylation: reduced phosphorylation of both Aurora A and B kinases
tg-ERG cells
  proliferation and megakaryocyte lineage-specific surface marker expression: induced proliferation arrest and megakaryocyte lineage-specific surface marker expression
6133/MPL cells [4]
  polyploidization, CD41 and CD42 expression, and apoptosis: increased polyploidization, CD41 and CD42 expression, and apoptosis

## C/C1=C/C(=O)O[C@@H]2C[C@@H](CC[C@H](C)/C=C\CC1)O[C@@](O)([C@@H]1CSC(=O)N1)C2 [latrunculin B]
CMK cells [5]
  screening positive: increased fraction of cells with DNA content beyond a cutoff (between 4N and 8N) compared to DMSO: positives
CMK cells [3]; [13]
  apoptosis: inducing
  polyploidization: inducing
  proliferation: inhibited

## CN(C)S(=O)(=O)c1ccc2c(c1)/C(=C/c1cc3c([nH]1)CCCC3)C(=O)N2 [SU6656]
CMK cells [3]; [13]
  apoptosis: inducing
  polyploidization: inducing
  proliferation: inhibited

## JAK3 inhibitor VI
CMK cells [5]
  screening positive: increased fraction of cells with DNA content beyond a cutoff (between 4N and 8N) compared to DMSO: identified
CMK cells [3]
  apoptosis: inducing
  polyploidization: inducing; also recorded: Induction of CMK polyploidization

## c1nc2nc(Nc3ccc(N4CCOCC4)cc3)nc(NC3CCCCC3)c2[nH]1 [reversine]
CMK cells [5]
  screening positive: increased fraction of cells with DNA content beyond a cutoff (between 4N and 8N) compared to DMSO: identified
CMK cells [3]; [13]
  apoptosis: inducing
  polyploidization: inducing
  proliferation: inhibited

## COC(=O)[C@@]1(O)C[C@H]2O[C@]1(C)n1c3ccccc3c3c4c(c5c6ccccc6n2c5c31)C(=O)NC4 [K252a]
CMK cells [5]
  screening positive: increased fraction of cells with DNA content beyond a cutoff (between 4N and 8N) compared to DMSO: identified
CMK cells [3]; [13]
  apoptosis: inducing
  polyploidization: inducing
  proliferation: inhibited

## COc1cc(Nc2ncc3c(n2)-c2ccc(Cl)cc2C(c2c(F)cccc2OC)=NC3)ccc1C(=O)O [MLN8237, Alisertib]
[6]
  polyploidization and proliferation of human non-DS AMKL cells: induced both polyploidization and proliferative arrest
[7]
  polyploidization and expression of CD41 and CD42: induced polyploidization and expression of CD41 and CD42
[8]
  bioavailability: excellent bioavailability
  mean plasma concentrations for at least 12 hr: above 0.5 µM
6133/MPL cells [1]; 6133/MPL cells pre-treated 24 hr with 1 µM
  animals surviving up to 120 days after transplantation of pre-treated cells: 80%
phospho-histone H3
  phospho-histone H3 level: accumulation of phospho-histone H3
AURKA
  AURKA phosphorylation / autophosphorylation: reduced AURKA autophosphorylation
  autophosphorylation of AURKA: inhibited autophosphorylation of AURKA
[2]
  polyploidization of primary human megakaryocytes: induced robust and selective polyploidization
AURKA relative to AURKB
  selectivity for AURKA relative to AURKB in cells: 200 fold
CMK cells [3]; [13]
  apoptosis: induced
  polyploidization: induced robust polyploidization
  proliferation: restricted proliferation
6133/MPL cells [9]; 15 mg/kg
  infiltration of leukemic cells (liver, lung): striking reduction of infiltration of leukemic cells
6133/MPL cells [9]; 15 mg/kg for 2 weeks vs vehicle
  peripheral white blood cell count, spleen and liver weights: significantly reduced peripheral white blood cell count and spleen and liver weights
In vivo
  Cmax: 34.8 µM
  Tmax: 30 min
  half-life: 186 min
AURKB; 0.1 µM, CMK cells
  autophosphorylation of AURKB: but not AURKB
tg-ERG cells
  proliferation and megakaryocyte lineage-specific surface marker expression: induced proliferation arrest and megakaryocyte lineage-specific surface marker expression
6133/MPL cells [4]
  polyploidization, CD41 and CD42 expression, and apoptosis: increased polyploidization, CD41 and CD42 expression, and apoptosis

## O=S(=O)(c1cccc2cnccc12)N1CCCNCC1 [fasudil]
[10]
  growth of leukemia cells in vivo and in vitro: restricted the growth
AMKL-derived cells
  activity / phenotype in AMKL-derived cells compared with diMF: did not fully recapitulate the strong phenotype; also recorded: lack of activity
402 purified kinases
  number of kinases whose binding to the immobilized ligand was inhibited by more than 65%: 27

## C=C1[C@@H](C)[C@H]2[C@H](Cc3ccccc3)NC(=O)[C@]23OC(=O)/C=C/[C@H](O)CCC[C@@H](C)C/C=C/[C@H]3[C@@H]1O [cytochalasin B]
CMK cells [5]
  screening positive: increased fraction of cells with DNA content beyond a cutoff (between 4N and 8N) compared to DMSO: positives
